Test results from US10125098B2, “Therapeutic compounds and methods of use thereof” (GENENTECH, INC., priority 2014, dated 2018).
Counter-ions that a name gives are not always drawn. Like-named read-outs stand apart in the source and are kept apart here.

Experiments:
NaV1.5 = target: T1, NaV1.5 (Homo sapiens, UniProt Q14524); assay: Patch voltage clamp electrophysiology assay (EP), NaV1.5; format: cell-based; details: HEK-293 cells stably expressing NaV1.5 with β1 subunit, whole-cell patch clamp, membrane potential −60 mV (inactivated state)
T1 construct: permanently transfected with an expression vector containing the full-length cDNA coding for the desired human sodium channel α-subunit; expressed in transfected cells; host or cells: HEK-293
Outline: (§1)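 HEK-293 cells stably expressing human α-subunit with β1; whole-cell patch clamp (PatchXpress or manual), ambient temperature, pH 7.4 external NaCl, CsF internal. Held at −60 mV (full inactivation), stepped to −150 mV for 20 ms, then test pulse; percent current decrease after compound wash-on taken as block.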

hNav1.7 = target: T2, hNav1.7 (Homo sapiens, UniProt Q15858); assay: Tritiated compound binding (LBA) to membranes from cells expressing hNav1.7 and the β1 subunit, competitive binding; details: competitive binding vs 100 pM [3H]compound, 18 h, room temperature, membranes with hNav1.7 and β1 subunit
T2 construct: expressed in transfected cells
Outline: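 Membranes from cells expressing hNav1.7 with β1 were incubated 18 h at room temperature with 100 pM tritiated formula (I) compound and increasing test compound, in 100 mM NaCl, 20 mM Tris HCl pH 7.4, 0.01% BSA.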

human NaV1.7 = target: T3, human NaV1.7 (Homo sapiens, UniProt Q15858); assay: Patch voltage clamp electrophysiology assay (EP), NaV1.7; format: cell-based; details: HEK-293 cells stably expressing NaV1.7 with β1 subunit; whole-cell patch clamp, membrane potential −60 mV (inactivated state)
T3 construct: permanently transfected with an expression vector containing the full-length cDNA coding for the desired human sodium channel α-subunit; expressed in transfected cells; host or cells: HEK-293
Outline: as §1

[1] = human, HEK-293 cells stably expressing human NaV1.5 with β1 subunit, pH 7.4

T1 sequence (Q14524 whole entry): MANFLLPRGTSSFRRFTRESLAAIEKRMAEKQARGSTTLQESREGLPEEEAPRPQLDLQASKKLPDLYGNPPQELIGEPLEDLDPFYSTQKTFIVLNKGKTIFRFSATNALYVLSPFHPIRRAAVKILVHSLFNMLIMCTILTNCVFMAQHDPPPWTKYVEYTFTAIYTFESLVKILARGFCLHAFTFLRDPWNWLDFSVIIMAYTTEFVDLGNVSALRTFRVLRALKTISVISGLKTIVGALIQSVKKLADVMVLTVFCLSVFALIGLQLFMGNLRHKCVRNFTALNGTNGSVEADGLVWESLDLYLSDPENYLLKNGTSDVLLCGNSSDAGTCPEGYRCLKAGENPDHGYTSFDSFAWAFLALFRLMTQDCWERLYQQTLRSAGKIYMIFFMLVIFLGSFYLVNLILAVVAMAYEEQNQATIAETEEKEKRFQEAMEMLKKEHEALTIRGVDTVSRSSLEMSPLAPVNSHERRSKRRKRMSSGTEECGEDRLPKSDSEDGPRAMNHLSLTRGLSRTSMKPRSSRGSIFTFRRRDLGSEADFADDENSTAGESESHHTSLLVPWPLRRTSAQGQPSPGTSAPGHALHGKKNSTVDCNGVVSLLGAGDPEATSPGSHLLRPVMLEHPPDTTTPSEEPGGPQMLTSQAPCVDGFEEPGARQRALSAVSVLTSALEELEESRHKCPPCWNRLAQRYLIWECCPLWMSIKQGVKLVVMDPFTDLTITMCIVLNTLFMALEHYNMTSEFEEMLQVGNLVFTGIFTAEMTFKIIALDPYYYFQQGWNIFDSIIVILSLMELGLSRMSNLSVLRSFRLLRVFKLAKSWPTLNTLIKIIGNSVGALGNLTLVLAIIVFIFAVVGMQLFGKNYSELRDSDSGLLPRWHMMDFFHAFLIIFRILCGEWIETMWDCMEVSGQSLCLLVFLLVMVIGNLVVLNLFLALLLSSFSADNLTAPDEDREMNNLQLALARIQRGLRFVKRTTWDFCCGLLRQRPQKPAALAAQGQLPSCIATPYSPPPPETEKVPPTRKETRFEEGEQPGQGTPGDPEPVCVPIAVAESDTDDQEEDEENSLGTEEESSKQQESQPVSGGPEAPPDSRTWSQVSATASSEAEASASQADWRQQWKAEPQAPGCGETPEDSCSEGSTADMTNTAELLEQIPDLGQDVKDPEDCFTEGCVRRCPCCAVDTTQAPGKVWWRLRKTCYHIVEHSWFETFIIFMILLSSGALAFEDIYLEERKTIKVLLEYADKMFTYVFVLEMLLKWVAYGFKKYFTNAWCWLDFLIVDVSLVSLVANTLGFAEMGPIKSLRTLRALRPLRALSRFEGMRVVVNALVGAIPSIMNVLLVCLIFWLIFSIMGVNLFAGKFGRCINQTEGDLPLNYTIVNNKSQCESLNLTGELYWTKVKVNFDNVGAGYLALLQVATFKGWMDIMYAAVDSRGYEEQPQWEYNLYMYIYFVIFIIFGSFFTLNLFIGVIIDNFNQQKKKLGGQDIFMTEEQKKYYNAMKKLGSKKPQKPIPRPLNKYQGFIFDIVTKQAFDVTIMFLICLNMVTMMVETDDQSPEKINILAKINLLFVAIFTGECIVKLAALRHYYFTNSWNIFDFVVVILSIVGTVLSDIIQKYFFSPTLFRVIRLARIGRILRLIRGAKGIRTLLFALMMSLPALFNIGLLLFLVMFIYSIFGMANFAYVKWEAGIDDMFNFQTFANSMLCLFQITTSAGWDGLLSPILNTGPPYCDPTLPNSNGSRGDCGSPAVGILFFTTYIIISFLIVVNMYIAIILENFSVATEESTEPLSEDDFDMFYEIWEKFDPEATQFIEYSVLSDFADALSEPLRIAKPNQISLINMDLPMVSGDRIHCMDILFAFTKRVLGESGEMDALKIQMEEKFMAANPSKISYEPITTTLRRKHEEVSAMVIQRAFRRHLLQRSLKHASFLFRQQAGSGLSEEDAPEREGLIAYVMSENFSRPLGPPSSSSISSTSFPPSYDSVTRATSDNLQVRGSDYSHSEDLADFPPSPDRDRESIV
T3 sequence (Q15858 1-1977 isoform Q15858-3): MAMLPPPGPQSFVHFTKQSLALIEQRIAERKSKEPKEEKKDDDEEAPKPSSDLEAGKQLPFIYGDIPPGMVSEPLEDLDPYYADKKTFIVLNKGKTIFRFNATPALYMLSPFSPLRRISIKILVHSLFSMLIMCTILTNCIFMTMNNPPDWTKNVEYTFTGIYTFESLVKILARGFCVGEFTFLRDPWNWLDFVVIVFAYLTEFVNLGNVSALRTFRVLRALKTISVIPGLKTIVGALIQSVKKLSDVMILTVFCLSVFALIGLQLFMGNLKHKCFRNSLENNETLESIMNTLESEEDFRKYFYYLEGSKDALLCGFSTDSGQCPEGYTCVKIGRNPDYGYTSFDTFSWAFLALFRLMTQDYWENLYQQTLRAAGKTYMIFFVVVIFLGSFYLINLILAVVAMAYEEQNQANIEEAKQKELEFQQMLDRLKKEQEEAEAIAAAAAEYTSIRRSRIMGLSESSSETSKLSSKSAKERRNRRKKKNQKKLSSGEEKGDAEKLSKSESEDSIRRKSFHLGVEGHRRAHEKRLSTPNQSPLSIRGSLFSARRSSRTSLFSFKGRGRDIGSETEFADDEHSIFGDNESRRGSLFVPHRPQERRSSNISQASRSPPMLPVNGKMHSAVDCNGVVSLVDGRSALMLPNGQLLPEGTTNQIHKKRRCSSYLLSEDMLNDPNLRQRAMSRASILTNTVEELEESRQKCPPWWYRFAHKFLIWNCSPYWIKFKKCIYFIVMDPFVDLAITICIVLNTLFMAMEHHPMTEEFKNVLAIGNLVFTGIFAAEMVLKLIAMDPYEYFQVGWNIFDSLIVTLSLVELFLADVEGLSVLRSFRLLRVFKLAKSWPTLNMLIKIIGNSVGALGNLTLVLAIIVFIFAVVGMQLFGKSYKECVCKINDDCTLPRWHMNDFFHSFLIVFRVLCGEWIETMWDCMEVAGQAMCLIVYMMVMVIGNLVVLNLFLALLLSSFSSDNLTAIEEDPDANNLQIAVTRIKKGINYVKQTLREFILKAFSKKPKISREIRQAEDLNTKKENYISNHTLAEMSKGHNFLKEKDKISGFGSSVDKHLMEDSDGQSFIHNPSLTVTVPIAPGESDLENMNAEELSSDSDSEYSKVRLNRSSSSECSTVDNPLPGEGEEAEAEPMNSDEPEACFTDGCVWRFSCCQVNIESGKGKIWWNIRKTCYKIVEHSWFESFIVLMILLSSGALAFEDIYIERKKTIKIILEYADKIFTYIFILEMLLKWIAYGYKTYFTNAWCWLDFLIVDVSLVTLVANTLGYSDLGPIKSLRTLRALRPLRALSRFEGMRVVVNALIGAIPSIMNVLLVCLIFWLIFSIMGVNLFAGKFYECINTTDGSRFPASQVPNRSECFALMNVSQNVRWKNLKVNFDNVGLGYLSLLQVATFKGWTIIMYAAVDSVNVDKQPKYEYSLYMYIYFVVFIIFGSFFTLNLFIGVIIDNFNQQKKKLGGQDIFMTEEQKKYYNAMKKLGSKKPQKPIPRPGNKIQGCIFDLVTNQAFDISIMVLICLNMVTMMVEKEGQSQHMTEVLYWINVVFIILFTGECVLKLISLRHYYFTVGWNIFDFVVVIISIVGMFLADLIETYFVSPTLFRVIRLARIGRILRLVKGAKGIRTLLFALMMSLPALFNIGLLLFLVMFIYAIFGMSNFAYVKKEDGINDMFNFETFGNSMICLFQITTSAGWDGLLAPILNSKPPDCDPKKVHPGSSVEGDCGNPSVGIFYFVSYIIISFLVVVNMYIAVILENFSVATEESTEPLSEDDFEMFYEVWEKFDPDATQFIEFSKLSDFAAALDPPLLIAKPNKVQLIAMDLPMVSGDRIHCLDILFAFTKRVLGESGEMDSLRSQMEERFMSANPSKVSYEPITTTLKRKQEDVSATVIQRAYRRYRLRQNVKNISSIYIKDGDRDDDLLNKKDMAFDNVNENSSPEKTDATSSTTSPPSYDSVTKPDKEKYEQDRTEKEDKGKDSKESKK
T3 sequence (Q07699 19-218 partner): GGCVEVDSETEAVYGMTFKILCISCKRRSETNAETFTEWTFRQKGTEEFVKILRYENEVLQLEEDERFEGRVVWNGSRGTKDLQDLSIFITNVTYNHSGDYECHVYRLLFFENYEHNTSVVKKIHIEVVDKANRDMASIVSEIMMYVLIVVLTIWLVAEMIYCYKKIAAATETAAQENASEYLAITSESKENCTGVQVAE
T2 sequence (Q15858 1-1977 isoform Q15858-3): as the sequence (Q15858 1-1977 isoform Q15858-3) above
T2 sequence (Q07699 19-218 partner): as the sequence (Q07699 19-218 partner) above

IC50 (hNav1.7) [µM] | IC50 (human NaV1.7) [µM] | Compound | IC50 (NaV1.5; read-out: Nav1.5) [µM] | IC50 (NaV1.5; [1]) [µM]
0.12 | 0.4 | O=C(O)[C@@H]1C[C@@H](F)CN1C(=O)c1cc(C2CC2)c(OCC2(F)CCN(Cc3ccc(C(F)(F)F)cc3Cl)CC2)cc1F [Example 127, (2S, 4R)-1-(4-((1-(2-chloro-4-(trifluoromethyl)benzyl)-4-fluoropiperidin-4-yl)methoxy)-5-cyclopropyl-2-fluorobenzoyl)-4-fluoropyrrolidine-2-carboxylic acid] | 13 | –
0.03 | 0.81 | C[C@H]1[C@H](F)CN(C(=O)c2cc(C3CC3)c(OCC34CC5CC(CC(C5)C3)C4)cc2F)[C@@H]1C(=O)O [Example 210b, (2S,3R,4S)-1-(4-(adamantan-1-ylmethoxy)-5-cyclopropyl-2-fluorobenzoyl)-4-fluoro-3-methylpyrrolidine-2-carboxylic acid] | 17 | –
0.01 | 0.3 | C[C@H]1CCN(C(=O)c2cc(C3CC3)c(OCC34CC5CC(CC(C5)C3)C4)cc2F)[C@@H]1C(=O)O [Example 149, (2S,3S)-1-[4-(1-adamantylmethoxy)-5-cyclopropyl-2-fluoro-benzoyl]-3-methyl-pyrrolidine-2-carboxylic acid] | 17 | –
0.0077 | 0.3 | C[C@H]1CCN(C(=O)c2cc(C3CC3)c(OCC3(C)CN([C@H](c4ccccc4)c4cc(Cl)cc(Cl)c4)C3)cc2F)[C@@H]1C(=O)O (single isomer, unassigned) [Example 115] | 11 | –
0.037 | 0.22 | O=C(O)[C@@H]1C[C@@H](F)CN1C(=O)c1cc(C2CC2)c(OCC2CCN(Cc3cc(Cl)cc(OC(F)(F)F)c3)CC2)cc1F [Example 105, (2S,4R)-1-(4-((1-(3-chloro-5-(trifluoromethoxy)benzyl)piperidin-4-yl)methoxy)-5-cyclopropyl-2-fluorobenzoyl)-4-fluoropyrrolidine-2-carboxylic acid] | 22 | –
0.1 | 0.92 | C[C@@]1(C(=O)O)CCCN1C(=O)c1cc(C2CC2)c(OCC23CC4CC(CC(C4)C2)C3)cc1F [Example 51, (S)-1-(4-((adamantan-1-yl)methoxy)-5-cyclopropyl-2-fluorobenzoyl)-2-methylpyrrolidine-2-carboxylic acid] | 14 | –
1 | 3 | CC(C)[C@@H](C(=O)O)N(C)C(=O)c1cc(C2CC2)c(OCC23CC4CC(CC(C4)C2)C3)cc1F [Example 67, N-(4-(adamantan-1-ylmethoxy)-5-cyclopropyl-2-fluorobenzoyl)-N-methyl-L-valine] | 7.5 | –
0.13 | 1.6 | O=C(O)[C@@H]1C[C@@H](F)CN1C(=O)c1cc(C2CC2)c(OCC2CCN(Cc3ccc(Cl)c(F)c3)CC2)cc1F [Example 104, (2S,4R)-1-(4-((1-(4-chloro-3-fluorobenzyl)piperidin-4-yl)methoxy)-5-cyclopropyl-2-fluorobenzoyl)-4-fluoropyrrolidine-2-carboxylic acid] | – | ≥ 30
0.024 | 0.33 | C[C@@H](c1cc(Cl)cc(Cl)c1)N1CCC(C)(COc2cc(F)c(C(=O)N3C[C@H](F)C[C@H]3C(=O)O)cc2C2CC2)CC1 (single isomer, unassigned) [Example 132a] | 17 | –
0.0069 | 0.27 | C[C@H]1OCN(C(=O)c2cc(C3CC3)c(OCC3(C)CN([C@H](c4ccccc4)c4cc(Cl)cc(Cl)c4)C3)cc2F)[C@@H]1C(=O)O [Example 229, (4S,5R)-3-(5-cyclopropyl-4-((1-((R)-(3,5-dichlorophenyl)(phenyl)methyl)-3-methylazetidin-3-yl)methoxy)-2-fluorobenzoyl)-5-methyloxazolidine-4-carboxylic acid] | – | ≥ 30
0.59 | 1.5 | O=C(O)[C@@H]1CCCN1C(=O)c1cc(C2CC2)c(OC2C3CC4CC2CC(Cl)(C4)C3)cc1F (single isomer, unassigned) [Example 80] | – | ≥ 30
0.16 | 1.1 | O=C(O)[C@@H]1[C@H](O)CCN1C(=O)c1cc(C2CC2)c(OCC23CC4CC(CC(C4)C2)C3)cc1F [Example 62, (2S, 3R)-1-(4-((adamantan-1-yl)methoxy)-5-cyclopropyl-2-fluorobenzoyl)-3-hydroxypyrrolidine-2-carboxylic acid] | 28 | –
0.25 | 0.79 | CC1(COc2cc(F)c(C(=O)N3CCC[C@H]3C(=O)O)cc2C2CC2)CCC2(CC1)CC2(F)F (stereo partly drawn) [Example 55, (5-cyclopropyl-4-((1,1-difluoro-6-methylspiro[2.5]octan-6-yl)methoxy)-2-fluorobenzoyl)-L-proline] | 29 | –
0.26 | 2.6 | O=C(O)C[C@@H]1CCCN1C(=O)c1cc(C2CC2)c(OCC23CC4CC(CC(C4)C2)C3)cc1F [Example 206, 2-((S)-1-(4-(adamantan-1-ylmethoxy)-5-cyclopropyl-2-fluorobenzoyl)pyrrolidin-2-yl)acetic acid] | 16 | –
0.36 | 2.2 | C[C@H](c1cc(Cl)cc(Cl)c1)N1CCC[C@H](COc2cc(F)c(C(=O)N3CCC[C@H]3C(=O)O)cc2C2CC2)C1 (single isomer, unassigned) [Example 73a] | 12 | –
1.1 | 4.5 | O=C(O)[C@@H]1CCC(=O)N1C(=O)c1cc(C2CC2)c(OCC23CC4CC(CC(C4)C2)C3)cc1F [Example 198, (S)-1-(4-(adamantan-1-ylmethoxy)-5-cyclopropyl-2-fluorobenzoyl)-5-oxopyrrolidine-2-carboxylic acid] | 18 | –
0.028 | 0.25 | COC[C@@H](c1cc(Cl)cc(Cl)c1)N1CCC(COc2cc(F)c(C(=O)N3C[C@H](F)C[C@H]3C(=O)O)cc2C2CC2)CC1 [Example 131, (2S,4R)-1-(5-cyclopropyl-4-((1-((R)-1-(3,5-dichlorophenyl)-2-methoxyethyl)piperidin-4-yl)methoxy)-2-fluorobenzoyl)-4-fluoropyrrolidine-2-carboxylic acid] | 18 | –
0.8 | 7.1 | O=C(O)[C@@H]1CCCN1C(=O)c1cc(C2CC2)c(OC[C@@H]2CCN(C(c3ccccc3)c3ccccc3)C2)cc1F (single isomer, unassigned) [Example 139b] | 22 | –
0.022 | 0.64 | O=C(O)[C@@H]1CCCN1C(=O)c1cc(C2CCC2)c(OCC23CC4CC(CC(C4)C2)C3)cc1F [Example 194, (S)-1-(4-(adamantan-1-ylmethoxy)-5-cyclobutyl-2-fluorobenzoyl)pyrrolidine-2-carboxylic acid trifluoroacetate] | 10 | –
0.02 | 1.7 | CC1(COc2cc(F)c(C(=O)N[C@H](C(=O)O)C3CC3)cc2C2CC2)CN([C@@H](c2ccccc2)c2cc(Cl)cc(Cl)c2)C1 (single isomer, unassigned) [Example 114] | 13 | –
0.049 | 0.62 | C[C@H]1C[C@@H](C(=O)O)N(C(=O)c2cc(C3CC3)c(OCC34CC5CC(CC(C5)C3)C4)cc2F)C1 [Example 148, (2S,4S)-1-[4-(1-adamantylmethoxy)-5-cyclopropyl-2-fluoro-benzoyl]-4-methyl-pyrrolidine-2-carboxylic acid] | 17 | –
0.066 | 0.52 | O=C(O)[C@@H]1C[C@@H](F)CN1C(=O)c1cc(C2CC2)c(OCC2CCN(Cc3cc(C(F)(F)F)cc(Cl)c3F)CC2)cc1F [Example 101, (2S,4R)-1-(4-((1-(3-chloro-2-fluoro-5-(trifluoromethyl)benzyl)-piperidin-4-yl)methoxy)-5-cyclopropyl-2-fluorobenzoyl)-4-fluoropyrrolidine-2-carboxylic acid] | – | ≥ 30
1.4 | 18 | O=C(O)[C@@H]1COC(=O)N1C(=O)c1cc(C2CC2)c(OCC23CC4CC(CC(C4)C2)C3)cc1F [Example 133, (S)-3-(4-(adamantan-1-ylmethoxy)-5-cyclopropyl-2-fluorobenzoyl)-2-oxooxazolidine-4-carboxylic acid] | 9.4 | –
0.6 | 1.3 | O=C(O)[C@@H]1[C@@H](O)CCN1C(=O)c1cc(C2CC2)c(OCC23CC4CC(CC(C4)C2)C3)cc1F [Example 75, (2S,3S)-1-(4-(adamantan-1-ylmethoxy)-5-cyclopropyl-2-fluorobenzoyl)-3-hydroxypyrrolidine-2-carboxylic acid] | 25 | –
0.83 | 3.1 | C[C@@H](c1cc(Cl)cc(Cl)c1)N1CCC(COc2cc(F)c(C(=O)N3[C@@H]4C[C@@H]4C[C@H]3C(=O)O)cc2C2CC2)CC1 [Example 156, (1R,3S,5R)-4-[5-cyclopropyl-4-[[1-[(1S)-1-(3,5-dichlorophenyl)ethyl]-4-piperidyl]methoxy]-2-fluoro-benzoyl]-4-azabicyclo[3.1.0]hexane-3-carboxylic acid] | 17 | –
